Results: paper PMC6254361, “The properties of Msh2–Msh6 ATP binding mutants suggest a signal amplification mechanism in DNA mismatch repair” (The Journal of Biological Chemistry, 2018)

Molecular target: T1, Msh2–Msh6 (Saccharomyces cerevisiae, UniProt P25847+Q03834, P25847:K694A)
T1 sequence (P25847 1-964 K694A): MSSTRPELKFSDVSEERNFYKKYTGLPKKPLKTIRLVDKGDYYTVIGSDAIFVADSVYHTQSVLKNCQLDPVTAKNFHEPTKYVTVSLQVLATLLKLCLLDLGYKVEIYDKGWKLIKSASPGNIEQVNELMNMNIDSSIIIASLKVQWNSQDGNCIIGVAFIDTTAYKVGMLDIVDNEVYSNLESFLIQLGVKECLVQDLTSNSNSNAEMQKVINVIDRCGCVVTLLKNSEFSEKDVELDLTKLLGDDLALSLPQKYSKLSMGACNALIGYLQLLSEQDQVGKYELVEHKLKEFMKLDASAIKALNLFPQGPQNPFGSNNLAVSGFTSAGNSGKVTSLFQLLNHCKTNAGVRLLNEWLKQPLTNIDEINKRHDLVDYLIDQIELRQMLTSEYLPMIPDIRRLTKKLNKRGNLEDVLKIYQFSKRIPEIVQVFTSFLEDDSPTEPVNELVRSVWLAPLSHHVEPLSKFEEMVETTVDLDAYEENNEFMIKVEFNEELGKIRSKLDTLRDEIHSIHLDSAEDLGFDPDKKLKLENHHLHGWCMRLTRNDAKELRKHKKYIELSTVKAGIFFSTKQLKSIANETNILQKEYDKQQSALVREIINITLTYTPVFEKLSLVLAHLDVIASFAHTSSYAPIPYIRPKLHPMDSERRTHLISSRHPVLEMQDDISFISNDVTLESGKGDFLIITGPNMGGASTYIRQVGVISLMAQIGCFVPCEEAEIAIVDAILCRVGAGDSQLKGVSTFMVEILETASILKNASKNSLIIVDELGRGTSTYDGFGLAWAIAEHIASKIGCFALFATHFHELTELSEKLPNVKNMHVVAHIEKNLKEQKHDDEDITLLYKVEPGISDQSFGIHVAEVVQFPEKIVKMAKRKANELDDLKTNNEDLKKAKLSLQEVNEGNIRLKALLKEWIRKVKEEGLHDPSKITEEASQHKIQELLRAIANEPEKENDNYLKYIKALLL
T1 sequence (Q03834 1-1242): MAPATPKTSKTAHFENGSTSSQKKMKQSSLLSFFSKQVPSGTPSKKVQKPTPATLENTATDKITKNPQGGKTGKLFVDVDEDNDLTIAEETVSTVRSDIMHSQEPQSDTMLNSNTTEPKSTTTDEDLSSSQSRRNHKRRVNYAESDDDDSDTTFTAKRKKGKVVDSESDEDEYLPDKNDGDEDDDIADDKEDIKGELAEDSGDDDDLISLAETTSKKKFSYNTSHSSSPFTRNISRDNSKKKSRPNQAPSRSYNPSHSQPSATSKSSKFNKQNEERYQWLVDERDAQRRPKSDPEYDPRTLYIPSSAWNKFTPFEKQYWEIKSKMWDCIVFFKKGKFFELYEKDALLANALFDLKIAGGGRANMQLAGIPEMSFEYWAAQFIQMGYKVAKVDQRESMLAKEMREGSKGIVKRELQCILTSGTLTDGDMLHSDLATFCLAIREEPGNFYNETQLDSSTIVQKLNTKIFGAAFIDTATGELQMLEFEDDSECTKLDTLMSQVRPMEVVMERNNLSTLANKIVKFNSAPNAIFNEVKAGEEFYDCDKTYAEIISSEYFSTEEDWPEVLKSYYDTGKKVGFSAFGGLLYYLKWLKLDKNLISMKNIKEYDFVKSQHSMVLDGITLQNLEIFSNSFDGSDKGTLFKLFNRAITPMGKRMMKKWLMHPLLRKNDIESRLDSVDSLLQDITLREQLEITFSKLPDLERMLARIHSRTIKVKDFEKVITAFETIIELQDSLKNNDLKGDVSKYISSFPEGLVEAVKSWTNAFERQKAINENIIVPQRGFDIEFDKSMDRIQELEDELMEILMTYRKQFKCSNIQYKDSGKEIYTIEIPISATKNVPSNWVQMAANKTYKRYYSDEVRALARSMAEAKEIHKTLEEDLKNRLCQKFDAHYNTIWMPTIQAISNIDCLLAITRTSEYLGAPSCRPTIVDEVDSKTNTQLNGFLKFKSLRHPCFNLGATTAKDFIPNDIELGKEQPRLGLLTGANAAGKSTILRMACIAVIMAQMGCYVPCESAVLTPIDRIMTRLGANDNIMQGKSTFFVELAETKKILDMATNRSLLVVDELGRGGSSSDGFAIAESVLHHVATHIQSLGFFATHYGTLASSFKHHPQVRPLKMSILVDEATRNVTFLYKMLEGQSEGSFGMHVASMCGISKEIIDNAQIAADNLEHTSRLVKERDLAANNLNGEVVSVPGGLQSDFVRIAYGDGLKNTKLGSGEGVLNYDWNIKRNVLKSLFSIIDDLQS
Test: UV cross-linking of [γ-32P]ATP, SDS-PAGE, phosphorimaging
Format: binding
Details: labelled compound; no Mg2+, EDTA, pH 8, on ice; Msh2 site at 60 μM ATP, Msh6 site at 1 μM ATP

In the case of `Nc1ncnc2c1ncn2[C@@H]1O[C@H](COP(=O)(O)OP(=O)(O)OP(=O)(O)O)[C@@H](O)[C@H]1O` [ATP], the “relative ATP binding” value was “Msh2(K694A)–Msh6 and Msh2(K694R)–Msh6 mutant complexes were defective for ATP binding to both”.
